Source: patent US8901138B2, “Sulfoximine substituted quinazolines for pharmaceutical compositions” (Boehringer Ingelheim International GmbH, priority 2012, dated 2014)

What was measured:
MNK1a = MNK1a (Homo sapiens, UniProt Q9BUB5); test: MNK1 in vitro kinase assay (assay 2), Z'-LYTE; type: biochemical; settings: for IC50: pre-activated GST-MNK1a; for inhibition at 1 µM: compound concentration of 1 μM
Text: B. MNK1 In Vitro Kinase Assay (Assay 2)
MNK1 Data can be obtained from the MNK1 Z′-LYTE® assay. The MNK1 Z′-LYTE® screening protocol and assay conditions are also described on www.invitrogen.com.
The assay is described as follows:
The Z′-LYTE® biochemical assay employs a fluorescence-based, coupled-enzyme format and is based on the differential sensitivity of phosphorylated and non-phosphorylated peptides to proteolytic cleavage. The peptide substrate is labeled with two fluorophores—one at each end—that make up a FRET pair.
In the primary reaction, the kinase transfers the gamma-phosphate of ATP to a single tyrosine, serine or threonine residue in a synthetic FRET-peptide. In the secondary reaction, a site-specific protease recognizes and cleaves non-phosphorylated FRET-peptides. Phosphorylation of FRET-peptides suppresses cleavage by the Development Reagent. Cleavage disrupts FRET between the donor (i.e., coumarin) and acceptor (i.e., fluorescein) fluorophores on the FRET-peptide, whereas uncleaved, phosphorylated FRET-peptides maintain FRET. A ratiometric method, which calculates the ratio (the Emission Ratio) of donor emission to acceptor emission after excitation of the donor fluorophore at 400 nm, is used to quantitate reaction progress, as shown in the equation below. Emission Ratio=Coumarin Emission(445 nm)/Fluorescein Emission(520 nm)
ASSAY SETUP: The inhibition of kinase activity of MNK1a was assessed using pre-activated GST-MNK1a. The 2×MKNK1 (MNK1) mixture is prepared in 50 mM HEPES pH 7.5, 0.01% BRIJ-35, 10 mM MgCl2, 4 mM MnCl2, 1 mM EGTA, 2 mM DTT. The final 10 μL Kinase Reaction consists of 13.5-54 ng MKNK1 (MNK1) and 2 μM Ser/Thr 07 in 50 mM HEPES pH 7.5, 0.01% BRIJ-35, 10 mM MgCl2, 2 mM MnCl2, 1 mM EGTA, 1 mM DTT. After the 1 hour Kinase Reaction incubation, 5 μL of a 1:32768 dilution of Development Reagent A is added.
The Test Compounds are screened in 1% DMSO (final) in the well.
All Peptide/Kinase Mixtures are diluted to a 2× working concentration in the MNK1 Kinase Buffer.
All ATP Solutions are diluted to a 4× working concentration in Kinase Buffer (50 mM HEPES pH 7.5, 0.01% BRIJ-35, 10 mM MgCl2, 1 mM EGTA).
Development Reagent Solution:
The Development Reagent is diluted in Development Buffer
Bar-coded Corning, low volume NBS, 384-well plate (Corning Cat. #3676)
1. 2.5 μL-4× Test Compound
2. 5 μL-2× Peptide/Kinase Mixture
5. 60-minute Kinase Reaction incubation at room temperature
6. 5 μL-Development Reagent Solution
8. 60-minute Development Reaction incubation at room temperature
9. Read on fluorescence plate reader and analyze the data
The following equations are used for each set of data points: […]
Correction for Background Fluorescence: FSample−FITCFl Ctl
Emission Ratio (using values corrected for background fluorescence):Coumarin
Emission (445 nm)/Fluorescein Emission (520 nm)
% Phosphorylation (% Phos): 1−((Emission Ratio×F100%)−C100%)/((C0%−C100%)+[Emission Ratio×(F100%−F0%)])*100 % Inhibition: 1−(% PhosSample/% Phos0% Inhibition Ctl)*100 FI=Fluorescence Intensity C100%=Average Coumarin emission signal of the 100% Phos. Control C0%=Average Coumarin emission signal of the 0% Phos. Control F100%=Average Fluorescein emission signal of the 100% Phos. Control F0%=Average Fluorescein emission signal of the 0% Phos. Control Graphing Software
SelectScreen® Kinase Profiling Service uses XLfit from IDBS. The dose response curve is curve fit to model number 205 (sigmoidal dose-response model).

MNK2a = target: T1, MNK2a (Homo sapiens, UniProt Q9HBH9); test: MNK2a in vitro kinase assay (assay 1), ADP-Glo; type: biochemical; settings: preactivated GST-MNK2a, 20 μM ATP, read-out: MNK2 IC50
T1 construct: made in house
T1 sequence (Q9HBH9 whole entry): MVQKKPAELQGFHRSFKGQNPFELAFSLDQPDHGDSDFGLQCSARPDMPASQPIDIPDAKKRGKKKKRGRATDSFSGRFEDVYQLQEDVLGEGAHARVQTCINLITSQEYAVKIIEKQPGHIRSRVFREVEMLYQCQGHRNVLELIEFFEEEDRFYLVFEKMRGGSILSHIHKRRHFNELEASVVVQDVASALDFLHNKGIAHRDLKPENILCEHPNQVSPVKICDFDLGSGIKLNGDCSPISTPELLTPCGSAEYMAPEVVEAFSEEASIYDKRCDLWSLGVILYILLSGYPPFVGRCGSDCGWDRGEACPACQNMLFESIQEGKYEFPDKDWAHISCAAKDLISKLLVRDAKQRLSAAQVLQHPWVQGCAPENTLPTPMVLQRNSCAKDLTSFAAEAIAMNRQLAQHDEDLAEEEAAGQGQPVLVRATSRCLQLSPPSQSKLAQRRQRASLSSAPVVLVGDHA
Description: A. MNK2a In Vitro Kinase Assay (Assay 1)
ASSAY SETUP: The inhibition of kinase activity of MNK2a was assessed using preactivated GST-MNK2a. The white, 384-well OptiPlate F plates were purchased from Perkin Elmer. The ADP-Glo Kinase Assay (including ultra pure ATP) was purchased from Promega (V9103). Activated MNK2a was obtained as described in WO2011/104340. The unlabeled eIF4E peptide (NH2-[…]—CONH2) (SEQ ID NO: 1), differing from Seq. ID No. 5 of WO 2011/104340 by the C-terminal —CONH2 group, was purchased from Thermo Fisher Scientific. All other materials were of highest grade commercially available. Compounds are tested in either serial dilutions or single dose concentrations. The compound stock solutions are 10 mM in 100% DMSO The serial compound dilutions are prepared in 100% DMSO followed by 1:27.3 intermediate dilution in assay buffer. The final DMSO concentration in assay will be <3%. In the 384-well plates 3 μl of test compound from the intermediate dilution is mixed with 4 μl of the activated MNK2 enzyme (final concentration of 10 nM) and 4 μl of the peptide (final concentration of 25 μM)/ultra pure ATP (final concentration of 20 μM), all dissolved in assay buffer. This step is followed by an incubation time of 90 min, then 10 μl of ADP Glo reagent are added, followed by 40 min of incubation. Then 20 μl of kinase detection reagent are admixed. The plates are sealed and after an incubation period of 30 min, the luminescence signal is measured in an Envision reader to determine the amount of produced ADP. All incubation steps are performed at room temperature. The assay buffer consists of 20 mM HEPES, 2 mM DTT, 0.01% BSA, 20 mM MgCl2 and 0.1% Pluronic F-127.
Each assay microtiter plate contains wells with vehicle controls instead of compound (1% DMSO in water) as reference for the high signal (100% CTL, high signal), and wells containing a potent MNK2 inhibitor (final 20 μM, 1% DMSO) as reference for low signal (0% CTL, low signal).
The luminescent signal generated is proportional to the ADP concentration produced and is correlated with activated MNK2 activity. The analysis of the data is performed by the calculation of the percentage of ATP consumption of activated MNK2 in the presence of the test compound compared to the consumption of ATP in the presence of activated MNK2 without compound. (RLU(sample)−RLU(low control))*100/(RLU(high value)−RLU(low control)) [RLU=relative luminescence units]
An inhibitor of the MNK2 enzyme will give values between 100% CTL (no inhibition) and 0% CTL (complete inhibition). Values of more than 100% CTL are normally related to compound/sample specific physico-chemical properties (e.g. solubility, light absorbance, fluorescence).
IC50 values based on dose response curves are calculated with the AssayExplorer software.

Sequence of MNK1a (Q9BUB5 1-424 isoform Q9BUB5-2): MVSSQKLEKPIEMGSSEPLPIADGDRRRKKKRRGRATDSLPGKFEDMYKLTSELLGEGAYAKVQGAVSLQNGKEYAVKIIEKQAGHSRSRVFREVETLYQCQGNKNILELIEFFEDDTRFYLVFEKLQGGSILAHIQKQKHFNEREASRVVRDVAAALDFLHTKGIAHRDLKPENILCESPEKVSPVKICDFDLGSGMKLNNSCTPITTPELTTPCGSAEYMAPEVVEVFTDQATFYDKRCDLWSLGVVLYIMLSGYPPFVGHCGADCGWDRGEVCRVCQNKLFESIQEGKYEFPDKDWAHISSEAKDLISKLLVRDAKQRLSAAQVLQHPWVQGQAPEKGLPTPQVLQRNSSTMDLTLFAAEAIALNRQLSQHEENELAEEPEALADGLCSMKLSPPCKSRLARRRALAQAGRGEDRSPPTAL

Row | SMILES | IC50 (MNK1a) | IC50 (MNK2a) | inhibition at 1 µM (MNK1a)
1 | Cc1cc(N=S(C)(=O)c2cccnc2)cc2ncnc(Nc3ccc(F)cc3O[C@@H]3CO[C@@H]4CCO[C@@H]43)c12 (some centres unmarked) [Example 2.95] | 33 nM | 4 nM | –
2 | Cc1cc(N=S(C)(=O)C(C)C)cc2ncnc(Nc3ccc(F)cc3O[C@@H]3CO[C@@H]4CCO[C@@H]43)c12 (some centres unmarked) [Example 2.109] | – | 2 nM | 100%
3 | CCOc1cc(N=S(C)(C)=O)cc2ncnc(Nc3ccc(F)cc3O[C@@H]3CO[C@H]4[C@@H]3OC[C@H]4OC)c12 [Example 5.5] | 14 nM | 2 nM | –
4 | Cc1cc(N=S2(=O)CCCC2)cc2ncnc(Nc3ccc(F)cc3O[C@@H]3CCCN(C(=O)OC(C)(C)C)C3)c12 [Example 2.66] | – | 16 nM | 88%
5 | Cc1cc(N=S(C)(C)=O)cc2ncnc(Nc3ccc(F)cc3O[C@H]3CO[C@H]4[C@@H]3OC[C@H]4O)c12 [Example 2.19] | – | – | 47%
6 | Cc1cc(N=S(C)(C)=O)cc2ncnc(Nc3ccc(F)cc3O[C@@H]3CCNC3)c12 [Example 3.11] | – | 32 nM | 78%
7 | Cc1cc(N=S(C)(C)=O)cc2ncnc(Nc3ccc(F)cc3O[C@@H]3CCCN(C(=O)OC(C)(C)C)C3)c12 [Example 2.27] | – | 46 nM | 78%
8 | Cc1cc(N=S(C)(C)=O)cc2ncnc(Nc3ccc(F)cc3O[C@@H]3CO[C@H]4[C@@H]3OC[C@H]4O)c12 [Example 1.18] | – | 2 nM | 100%
9 | CC(C)(C)OC(=O)N1CCC[C@@H](Oc2cc(F)ccc2Nc2ncnc3cc(N=S(C)(C)=O)cc(F)c23)C1 [Example 2.13] | – | 39 nM | 73%
10 | CCS(C)(=O)=Nc1cc(C)c2c(Nc3cccnc3O[C@H]3CC[C@H](O)CC3)ncnc2c1 (some centres unmarked) [Example 2.44] | – | 3 nM | 100%
11 | Cc1cc(N=S2(=O)CCCC2)cc2ncnc(Nc3ccc(F)cc3O[C@@H]3CC[C@@H]4OCC[C@@H]43)c12 [Example 2.125] | – | 2 nM | 94%
12 | Cc1cc(N=S(C)(=O)c2cccnc2)cc2ncnc(Nc3ccc(F)cc3O[C@H]3CCOC3)c12 (some centres unmarked) [Example 2.102] | 131 nM | 5 nM | –
13 | Cc1cc(N=S(C)(=O)CCN(C)C)cc2ncnc(Nc3ccc(F)cc3O[C@H]3CC[C@H](O)CC3)c12 (some centres unmarked) [Example 2.113] | – | 5 nM | 90%
14 | Cc1cc(N=S2(=O)CCN(C(=O)OC(C)(C)C)CC2)cc2ncnc(Nc3ccc(F)cc3O[C@H]3CO[C@H]4[C@@H]3OC[C@H]4O)c12 [Example 2.21] | – | – | 81%
15 | CS(C)(=O)=Nc1cc(C2CC2)c2c(Nc3ccc(F)cc3O[C@H]3CCOC3)ncnc2c1 [Example 1.15] | – | 3 nM | 95%
16 | Cc1cc(N=S(C)(=O)CCN2CCCC2)cc2ncnc(Nc3ccc(F)cc3O[C@H]3CC[C@H](O)CC3)c12 (some centres unmarked) [Example 2.107] | 102 nM | 10 nM | –

Row | SMILES | IC50 (MNK1a) | IC50 (MNK2a) | inhibition at 1 µM (MNK1a)
17 | CCS(C)(=O)=Nc1cc(C)c2c(Nc3ccc(F)cc3O[C@@H]3CO[C@H]4[C@@H]3OC[C@H]4OC)ncnc2c1 (some centres unmarked) [Example 2.55] | – | 2 nM | 99%
18 | Cc1cc(N=S(C)(C)=O)cc2ncnc(Nc3cccnc3O[C@@H]3CO[C@H]4[C@@H]3OC[C@H]4O)c12 [Example 1.9] | – | 6 nM | 90%
19 | Cc1cc(N=S(C)(C)=O)cc2ncnc(Nc3cccnc3O[C@H]3CC[C@H](NC(=O)OC(C)(C)C)CC3)c12 [Example 2.10] | – | 4 nM | 92%
20 | CS(C)(=O)=Nc1cc(F)c2c(Nc3ccc(F)cc3O[C@@H]3CCCNC3)ncnc2c1 [Example 3.8] | – | 22 nM | 79%
21 | CC(C)(C)OC(=O)N1CC[C@@H](Oc2cc(F)ccc2Nc2ncnc3cc(N=S(C)(C)=O)cc(F)c23)C1 [Example 2.32] | – | – | 50%
22 | CC(C)(O)CN1CCC[C@@H](Oc2ncccc2Nc2ncnc3cc(N=S(C)(C)=O)cc(F)c23)C1 [Example 6.19] | – | – | 70%
23 | COCCS(C)(=O)=Nc1cc(C)c2c(Nc3ccc(F)cc3O[C@H]3CCOC3)ncnc2c1 (some centres unmarked) [Example 2.63] | – | – | 85%
24 | Cc1cc(N=S(C)(C)=O)cc2ncnc(Nc3ccc(Br)cc3OC3CCOCC3)c12 [Example 1.10] | – | – | 80%
25 | Cc1cc(N=S(C)(C)=O)cc2ncnc(Nc3ccc(F)cc3O[C@@H]3CCN(C(=O)OC(C)(C)C)C3)c12 [Example 2.52] | – | – | 60%
26 | COC(=O)N1CCS(=O)(=Nc2cc(C)c3c(Nc4ccc(F)cc4O[C@H]4CC[C@H](OC)CC4)ncnc3c2)CC1 [Example 7.3] | – | – | 72%
27 | Cc1cc(N=S(C)(C)=O)cc2ncnc(Nc3cccnc3O[C@@H]3CCCN(CC(C)(C)O)C3)c12 [Example 6.5] | – | – | 91%
28 | CCS(=O)(CC)=Nc1cc(C)c2c(Nc3ccc(F)cc3O[C@@H]3CO[C@H]4[C@@H]3OC[C@H]4O)ncnc2c1 [Example 2.86] | – | – | 89%
29 | Cc1cc(N=S(C)(C)=O)cc2ncnc(Nc3ccc(F)cc3OC3CCOC3=O)c12 (centres unmarked) [Example 4.13] | – | – | 75%
30 | CO[C@H]1CC[C@H](Oc2cc(F)ccc2Nc2ncnc3cc(N=S(C)(C)=O)cc(F)c23)CC1 [Example 2.46] | – | – | 88%
31 | Cc1cc(N=S2(=O)CCCC2)cc2ncnc(Nc3ccc(F)cc3O[C@H]3CCOC3)c12 [Example 2.85] | – | – | 100%
32 | Cc1cc(N=S2(=O)CCCC2)cc2ncnc(Nc3ccc(F)cc3O[C@@H]3CCNC3)c12 [Example 3.4] | – | – | 92%
